Reference: article PMC5766630, “Non-estrogenic Xanthohumol Derivatives Mitigate Insulin Resistance and Cognitive Impairment in High-Fat Diet-induced Obese Mice” (Scientific Reports, 2018)

Assays:
[1] = system: C57BL/6J mice fed a high-fat diet; experiment: Glucose tolerance test; assay type: in vivo, mouse; conditions: 30 mg/kg/day, 6 h fast, glucose 2 g/kg i.p., n = 5; for Glucose tolerance test AUC, decrease compared with control, 4 weeks: 4 weeks of feeding; for Glucose tolerance test AUC, decrease compared with control, 11 weeks: 11 weeks of feeding
Procedure: Glucose tolerance tests were conducted after 4 and 11 weeks of feeding the experimental diets. Five mice from each treatment group were used in each glucose tolerance assay. Mice were fasted for 6 h prior to baseline blood glucose testing. Blood was collected from the mice by tail puncture, and glucose measurements were taken using a One Touch UltraMini glucometer (LifeScan, Inc., Milpitas, CA, USA). Mice were weighed and then given an i.p. injection of glucose equal to 2 g/kg body weight. Glucose readings were taken at 0 minutes (prior to glucose injection), and at 15 min, 30 min, 1 h, and 2 h after glucose injection.
(§1) Body weight, food intake, and metabolic measurements: data were analyzed using a one-way ANOVA in PROC GLM for single measures within animals (i.e., liver, plasma, and muscle metabolic measures) and a repeated-measures-in-time design ANOVA in PROC MIXED for repeated measures within animals (i.e., body weight, feed intake, and feed efficiency). The area-under-the-curve (AUC) for the glucose tolerance tests were calculated using the trapezoidal rule. Before statistical analysis, data were examined for variance homogeneity and normality. To achieve normality, liver, plasma, and muscle XN data and plasma insulin data were natural log-transformed. For statistical comparisons, the control group was compared with each XN metabolite group.

[2] = system: C57BL/6J mice fed a high-fat diet; experiment: In vivo liver toxicity: plasma AST and ALT; set-up: species or system mouse; conditions: male C57BL/6J mice, HFD, 30 mg/kg/day in diet, 13 weeks; mean ± SE, n = 11–12
Description: (§2) Nine-week old male C57BL/6J mice, obtained from The Jackson Laboratory (Bar Harbor, ME, USA), were housed individually in plastic cages under a 12–12-hr light-dark cycle. They were assigned randomly to four groups consisting of 12 mice each. One group (control) was fed a HFD (Dyets Inc., Bethlehem, PA, USA) containing 60%, 20% and 20% total calories from fat, carbohydrate and protein, respectively, and the other three groups were fed the HFD containing XN, DXN, or TXN. The test compounds were dissolved in an isotropic mixture of oleic acid:propylene glycol:Tween 80, 0.9:1:1 by weight (OPT) before incorporation into the HFD. The control diet contained an identical amount of OPT. All diets were prepared in pellet form by Dyets, Inc. (Bethlehem, PA, USA). The mouse diets were formulated to deliver a dose of 30 mg test compound per kg body weight per day. Food intake was measured three times per week and body weights were recorded weekly. At the end of 13 weeks of feeding, the mice were euthanized and blood, liver and skeletal muscle were collected for analyses. All animal protocols were approved by Institutional Animal Care and Use Committee (IACUC) at Oregon State University. Animal experiments were carried out in accordance with the relevant guidelines and regulations.
(§3) Plasma triglycerides and total cholesterol were analyzed with commercially available kits (Fisher-Scientific, Pittsburgh, PA, USA). Plasma glucose was analyzed by a test kit obtained from Wako Diagnostics (Mountain View, CA, USA). Plasma insulin and leptin were analyzed by ELISA kits purchased from Alpco Diagnostics (Salem, NH, USA) and Crystal Chem (Downers Grove, IL, USA), respectively. Homeostasis Model Assessment of Insulin Resistance (HOMA-IR) was calculated as follows: fasting plasma insulin concentration (mU/L) × fasting plasma glucose level (mmol/L)/22.5[95]. Plasma levels of AST and ALT were measured using commercially-available kits (Bioo Scientific Corp., Austin, TX, USA) as indicators of in vivo liver toxicity.

[3] = system: C57BL/6J mice fed a high-fat diet; experiment: 13-week HFD feeding study: body weight, food intake, liver weight, metabolic parameters; assay type: in vivo, mouse; conditions: 13 weeks; for Body weight gain / HOMA-IR / Fasting plasma glucose / Feed efficiency / Food intake / Liver weight / Plasma cholesterol / Plasma insulin / Plasma leptin / Plasma triglycerides: male C57BL/6J mice, HFD, mean ± SE; for Body weight gain: 30 mg/kg body weight/day in diet; for Body weight gain / Fasting plasma glucose / Feed efficiency / Food intake / Liver weight / Plasma cholesterol / Plasma insulin / Plasma leptin / Plasma triglycerides: n = 11–12; for HOMA-IR / Fasting plasma glucose / Feed efficiency / Food intake / Liver weight / Plasma cholesterol / Plasma insulin / Plasma leptin / Plasma triglycerides: 30 mg/kg/day in diet; for HOMA-IR: insulin (mU/L) × glucose (mmol/L)/22.5
Description: as §2, §3, §1

[4] = system: skeletal muscle AMPK (pAMPKα/total AMPKα); experiment: AMPK activation in skeletal muscle by Western blot; assay type: in vivo, mouse; conditions: HFD mice, 30 mg/kg/day, 13 weeks, vs control
Procedure: (§4) Approximately 150 mg of frozen liver and muscle tissues were homogenized in tubes containing RIPA buffer with protease and phosphatase inhibitors plus ceramic beads (1.4 mm Ceramic, Bulk Beads, Fisher Scientific, Pittsburgh, PA, USA) using a Precellys 24 (PEQLAB Biotechnology GmbH, Germany). Liver tissue was homogenized for 1 × 30 sec at 6,500 rpm whereas muscle was homogenized for 3 × 30 sec at 6,500 rpm with 20 sec intervals. The homogenates were centrifuged at 15,700 × g for 10 minutes and aliquots (50 µg of protein) of the supernatant (lysate) were separated by SDS-PAGE using 4–15% MP TGX Gels (Bio-Rad # 4561083) and blotted onto nitrocellulose membranes. Membranes were blocked with 5% nonfat milk for 2 h and incubated with antibodies against pAMPK (Phospho-AMPKα (Thr172) Antibody, cat. no. #2531 Cell Signaling Technology, Danvers, MA, USA), AMPK (AMPKα Antibody, cat. no. #2532 Cell Signaling Technology, Danvers, MA, USA), or β-actin (Santa Cruz Biotechnology) for 1 h or overnight. After a second reaction with secondary antibodies (horseradish peroxidase-conjugated IgG goat antirabbit or goat antimouse antibodies), the protein bands on the nitrocellulose membranes were visualized by enhanced chemiluminescence substrate on a Biorad ChemiDocTM MP Imaging System (BioRad Laboratories Inc, Hercules, CA, USA). Band intensities were quantified by densitometry using Image J software.

[5] = system: human LDL; set-up: method as in PMID 14565769; conditions: cited from earlier work
[6] = system: liver AMPK (pAMPKα/total AMPKα); experiment: AMPK activation in liver by Western blot; assay type: in vivo, mouse; conditions: HFD mice, 30 mg/kg/day, 13 weeks, vs control
Procedure: as §4

SMILES	Glucose tolerance test AUC, decrease compared with control, 4 weeks [1] [%]	Glucose tolerance test AUC, decrease compared with control, 11 weeks [1] [%]	Plasma ALT [2] [U/L]	Plasma AST [2] [U/L]	Body weight gain [3] [g]	HOMA-IR [3]	Fasting plasma glucose [3] [mg/dL]	Feed efficiency [3]	Food intake [3] [g/day]	Liver weight [3] [g]	Plasma cholesterol [3] [mg/dL]	Plasma insulin [3] [ng/mL]	Plasma leptin [3] [ng/mL]	Plasma triglycerides [3] [mg/dL]	Decrease of skeletal muscle AMPK activation (pAMPK/AMPK) [4] [%]	Inhibition of SIN-1-induced lipid peroxidation of human LDL [5]	Increase of liver AMPK activation (phosphorylated AMPKα/total AMPKα) [6]	Plasma leptin concentration, change compared with controls ([3]; HFD mice, 30 mg/kg/day) [%]	also measured
COc1cc(O)c(CC=C(C)C)c(O)c1C(=O)/C=C/c1ccc(O)cc1 [XN, 3′-[3,3-dimethylallyl]-2′,4′,4-trihydroxy-6′-methoxychalcone]	43	12	68.8 ± 6.8	112.3 ± 3.3	16.1 ± 1.3	31.3 ± 1.7	169 ± 8.3	0.068 ± 0.006 g weight gain/g food intake	2.59 ± 0.09	1.14 ± 0.07	196 ± 8.5	2.61 ± 0.65	10.6 ± 1.00	80.6 ± 4.2	19	effectively inhibits	24%		
COc1cc(O)c(CCC(C)C)c(O)c1C(=O)CCc1ccc(O)cc1 [TXN, tetrahydroxanthohumol]	61	45	56.8 ± 10.5	110.5 ± 6.0	9.70 ± 1.4	4.10 ± 0.3	118 ± 7.2	0.042 ± 0.006 g weight gain/g food intake	2.51 ± 0.09	0.93 ± 0.07	167 ± 8.9	0.49 ± 0.08	6.39 ± 1.04	79.3 ± 7.8	25	little or negligible protection	did not cause a significant activation	−44	HOMA-IR index as % of control mice ([3]; HFD mice, 30 mg/kg/day): 13 % of control mice; Liver weight, change compared with controls ([3]; HFD mice, 30 mg/kg/day): −21%; Plasma insulin, change compared with controls ([3]; HFD mice, 30 mg/kg/day): −82%
COc1cc(O)c(CC=C(C)C)c(O)c1C(=O)CCc1ccc(O)cc1 [DXN, α,β-Dihydroxanthohumol]	46	35	55.8 ± 6.1	105.6 ± 6.5	15.1 ± 1.3	22.0 ± 5.2	150 ± 13.0	0.062 ± 0.006 g weight gain/g food intake	2.66 ± 0.09	1.11 ± 0.07	167 ± 8.5	2.08 ± 0.69	8.48 ± 1.00	84.4 ± 4.9	22		did not cause a significant activation	−26	
